# Patent US10065937B2, “FLT3 receptor antagonists” (INSERM (INSTITUT NATIONAL DE LA SANTÉ ET DE LA RECHERCHE …, priority 2014, dated 2018)
# Key:
# [1] = target: T1, SNAP tagged-FLT3 (Homo sapiens, UniProt P36888); assay: Tag-lite competition binding assay (Red-FL displacement, HTRF); details: cells expressing SNAP tagged-FLT3, 0.5 nM Red-FL
# T1 construct: expressed in transfected cells
# T1 sequence (P36888 27-993): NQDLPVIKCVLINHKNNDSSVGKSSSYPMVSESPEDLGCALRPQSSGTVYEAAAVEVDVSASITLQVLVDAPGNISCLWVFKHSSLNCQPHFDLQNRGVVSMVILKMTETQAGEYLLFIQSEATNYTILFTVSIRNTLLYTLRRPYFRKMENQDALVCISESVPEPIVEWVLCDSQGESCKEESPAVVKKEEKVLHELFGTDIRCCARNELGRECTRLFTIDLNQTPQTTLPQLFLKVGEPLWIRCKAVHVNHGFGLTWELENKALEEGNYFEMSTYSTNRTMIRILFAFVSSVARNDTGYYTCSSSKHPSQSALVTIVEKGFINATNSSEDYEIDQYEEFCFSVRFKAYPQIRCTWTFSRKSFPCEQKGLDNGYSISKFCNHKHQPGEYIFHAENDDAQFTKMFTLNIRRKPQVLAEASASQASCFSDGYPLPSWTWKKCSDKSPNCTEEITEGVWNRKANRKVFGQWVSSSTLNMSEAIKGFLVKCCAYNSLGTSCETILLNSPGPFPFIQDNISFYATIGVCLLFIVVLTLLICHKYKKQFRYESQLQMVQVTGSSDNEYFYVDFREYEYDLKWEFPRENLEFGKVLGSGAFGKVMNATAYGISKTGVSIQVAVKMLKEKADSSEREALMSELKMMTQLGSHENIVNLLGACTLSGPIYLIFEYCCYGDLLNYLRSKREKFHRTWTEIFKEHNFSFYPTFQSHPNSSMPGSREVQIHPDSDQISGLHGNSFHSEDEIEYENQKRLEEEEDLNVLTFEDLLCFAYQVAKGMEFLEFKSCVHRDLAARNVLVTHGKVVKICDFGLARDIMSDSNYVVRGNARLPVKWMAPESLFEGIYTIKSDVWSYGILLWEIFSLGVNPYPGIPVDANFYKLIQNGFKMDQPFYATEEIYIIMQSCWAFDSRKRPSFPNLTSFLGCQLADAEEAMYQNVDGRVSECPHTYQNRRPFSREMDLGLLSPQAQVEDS
# Method: Covalent Labeling of Cells Expressing the SNAP Tagged-FLT3
# Labelling of Adherent Cells
# Cell culture medium was removed from the 96 well plates and 100 nM of SNAP-Lumi4 Tb previously diluted in the Tag-lite labelling medium, was added under 100 μl per well, and further incubated 1 h at 37° C. under 5% CO2. The excess of SNAP-Lumi4-Tb was removed by washing each well 4 times with 100 μl of Tag-lite labelling medium.
# Labelling of a Batch of Cells and Cells Freezing
# After removal of the cell culture medium from a flask containing adherent cells, 5 ml of Tag-lite labelling medium containing 100 nM of SNAP-Lumi4-Tb was added to the flask and incubated for 1 h at 37° C. under 5% CO2. The excess of SNAP-Lumi4-Tb was removed by washing each flask 4 times with 5 ml of Tag-lite labelling medium. Cells were detached, pelleted by centrifugation (5 min at 1,300 rpm) and suspended in a cell culture medium containing 10% DMSO. Then, cells were distributed at 5 millions cells per vial and slowly frozen to −80° C. in isopropanol then transferred in liquid nitrogen for storage.
# Prior to their use, the frozen cells were thawed quickly at 37° C., the medium was removed from the vials and the cells were suspended in the Tag-lite labelling medium at a cell-density of 1 million cells/ml.
# Tag-lite binding assays were performed 24 h after transfection on fresh cells. When using frozen cells, binding assays were carried out immediately after cells thawing. When the assay was carried out on adherent cells in 96-well plates, the cell density was 50,000 cells per well, while a density of 10,000 cells per well was used to carry out binding assays in suspension in 384-well small volume plates.
# Competition Binding Assay
# Both Red-FL and the compounds to be tested were diluted in Tag-lite labelling medium. Cells were incubated with 0.5 nM Red-FL in the presence of increasing concentrations of compounds to be tested. In the plates containing labelled cells, 50 μl (or 10 μl in 384-well plates) of Tag-lite labelling medium, 25 μl (or 5 μl in 384-well plates) of compounds to be tested were added and incubated for 1 h at Room temperature prior to the addition of 25 μl (or 5 μl in 384-well plates) of Red-FL. Plates were then incubated at room temperature for 4 h or overnight before signal detection.
# (§1) Signal was detected using an advanced fluorescence microplate reader (RUBYstar, BMG Labtech) equipped with a HTRF optic module allowing a donor excitation at 337 nm and a signal collection both at 665 nm and 620 nm. A frequency of 20 flashes/well is selected for the laser excitation. The signal was collected both at 665 nm and 620 nm using the following time-resolved settings: delay 50 μs, integration time 400 μs. HTRF ratios were obtained by dividing the acceptor signal (665 nm) by the donor signal (620 nm) and multiplying this value by 10,000. The 10,000 multiplying factor is used solely for the purpose of easier data handling.
# (§2) Data Analysis and Statistics
# (§3) Kd values of the fluorescent ligand were determined from saturation curves of the specific binding using GraphPad Prism software (GraphPad Software, Inc., San Diego, Calif.). Ki values of the compounds were determined from binding competition experiments according to the Cheng and Prusoff equation. EC50 and IC50 values of the rh-FL and compounds were determined from sigmoidal dose-response curves using GraphPad Prism software (GraphPad Software, Inc., San Diego, Calif.).
# [2] = target: T2, FLT3 receptor (Homo sapiens, UniProt P36888); assay: Auto-phosphorylation competition assay on RS4-11 cells (HTRF); format: cell-based; details: RS4-11 cells expressing endogenous FLT3, 0.1 μM rh-FL; read-out: IC50, μM Autophosphorylation
# T2 construct: Auto-phosphorylation assays were performed on RS4-11 cells that express endogenous FLT3 receptor; endogenous in cells; host or cells: RS4-11 cells
# T2 sequence (P36888 27-993): T1 sequence (P36888 27-993)
# Method: Auto-Phosphorylation Assays
# Auto-phosphorylation assays were performed on RS4-11 cells that express endogenous FLT3 receptor. A density of 50,000 cells per well was used to carry out this assay in suspension in 384-well small volume plates to determine the degree of phosphorylation of FLT3. In the aim to discover antagonist compounds and to develop this assay, we were determined the efficiency of FL on RS4-11 cells.
# Both rh-FL and the compounds to be tested were diluted in Tag-lite labelling medium. Cells were incubated with 0.1 μM of rh-FL in the presence of increasing concentrations of compounds to be tested. In the plates containing RS4-11 cells (5 μl/well), 5 μl of compounds to be tested were added and incubated for 1 h at Room temperature prior to the addition of 2 μl of rh-FL at 0.1 μM. After incubation of 3 minutes at room temperature of rh-FL, 4 μl of lysis buffer were added and incubated for 2 h at room temperature. A mix of anti-FLT3 and an anti-TYR-969 FLT3 antibodies labeled with Lumi4-Tb and d2 respectively (4 μl) diluted in Tag-lite labelling medium, were added on cell lysate. Plates were then incubated at room temperature for 2 h or overnight before signal detection.
# as §1, §2, §3
SMILES,IC50 [1],IC50 [2]
"O=C(Nc1cc(Cl)ccc1O)c1cccc(S(=O)(=O)N2CCCCC2)c1 [Example 1, N-(5-chloro-2-hydroxyphenyl)-3-(piperidin-1-ylsulfonyl) benzamide]",11.8 µM,58 µM
"O=S(=O)(c1cccc(-c2nnc(-c3cc(Cl)ccc3O)[nH]2)c1)N1CCCCC1 [Example 4, 4-chloro-2-(5-(3-(piperidin-1-ylsulfonyl)phenyl)-4H-1,2,4-triazol-3-yl)phenol]",26 µM,20 µM
"O=S(=O)(c1cccc(-c2ncc(-c3cc(Cl)ccc3O)[nH]2)c1)N1CCCCC1 [Example 5, 4-chloro-2-(2-(3-(piperidin-1-ylsulfonyl)phenyl)-1H-imidazol-5-yl)phenol]",33 µM,17 µM
"NCCCN(C1CCCCC1)S(=O)(=O)c1cccc(-c2nc3cc(Cl)ccc3o2)c1 [Example 7, N-(3-aminopropyl)-3-(5-chloro-1,3-benzoxazol-2-yl)-N-cyclohexylbenzene-1-sulfonamide]",10 µM,63 µM
"O=S(=O)(c1cccc(-c2nc3cccc(O)c3[nH]2)c1)N1CCCCC1 [Example 8, 2-[3-(1-piperidylsulfonyl)phenyl]-3H-benzimidazol-4-ol]",98 µM,68 µM
"O=C(Nc1cc(Cl)ccc1-c1nnn[nH]1)c1cccc(S(=O)(=O)N2CCCCC2)c1 [Example 9, N-[5-chloro-2-(1H-1,2,3,4-tetrazol-5-yl)phenyl]-3-(piperidine-1-sulfonyl)benzamide]",175 µM,148 µM
"O=C(Nc1cccc(S(=O)(=O)N2CCCCC2)c1)c1cc(Cl)ccc1O [Example 10, 5-Chloro-2-hydroxy-N-[3-(piperidine-1sulfonyl)phenyl]benzamide]",4.6 µM,116 µM
"CN(C1CCCCCC1)S(=O)(=O)c1cccc(C(=O)Nc2cc(Cl)ccc2O)c1 [Example 11, N-(5-chloro-2-hydroxyphenyl)-3-[cycloheptyl(methyl)sulfamoyl]benzamide]",27.5 µM,41 µM
